Assay results: PubChem BioAssay AID2060907 (Molecular Pharmacology Branch, DTP, NCI, 2025)
Several values for one entry are separate records, joined by “and”; a condition that tells them apart may be missing. Identical values can stand only once. One block for each compound: values may come before it.

Tested on: 388556-164-R-J1-PDC complex spheroid viability
Assay: Anticancer human tumor 388556-164-R-J1-PDC patient-derived colon adenocarcinoma cell line growth inhibition [RAS]
Conditions: for viability, T/C: stronger effect = lower value
Method in brief: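 Tumour cells grown as complex spheroids with HUVEC endothelial cells and mesenchymal stem cells, treated with RAS pathway inhibitor combinations. Each agent spans half-log steps from near clinical Cmax, or 10 microM where Cmax is unknown.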

[1] = curve of first compound, second compound 0.00316 µM
[2] = curve of first compound, second compound 0.01 µM
[3] = curve of first compound, second compound 0.0316 µM
[4] = curve of first compound, second compound 0.1 µM
[5] = curve of first compound, second compound 0.316 µM
[6] = curve of first compound, second compound 1 µM
[7] = second compound 0.0316 µM, first compound 0.000949 µM
[8] = second compound 0.0316 µM, first compound 0.003 µM
[9] = second compound 0.0316 µM, first compound 0.00949 µM
[10] = second compound 0.0316 µM, first compound 0.03 µM
[11] = second compound 0.0316 µM, first compound 0.0949 µM
[12] = second compound 0.0316 µM, first compound 0.3 µM
[13] = second compound 0.1 µM, first compound 0.000949 µM
[14] = second compound 0.1 µM, first compound 0.003 µM
[15] = second compound 0.1 µM, first compound 0.00949 µM
[16] = second compound 0.1 µM, first compound 0.03 µM
[17] = second compound 0.1 µM, first compound 0.0949 µM
[18] = second compound 0.1 µM, first compound 0.3 µM
[19] = second compound 0.316 µM, first compound 0.000949 µM
[20] = second compound 0.316 µM, first compound 0.003 µM
[21] = second compound 0.316 µM, first compound 0.00949 µM
[22] = second compound 0.316 µM, first compound 0.03 µM
[23] = second compound 0.316 µM, first compound 0.0949 µM
[24] = second compound 0.316 µM, first compound 0.3 µM
[25] = second compound 1 µM, first compound 0.000949 µM
[26] = second compound 1 µM, first compound 0.003 µM
[27] = second compound 1 µM, first compound 0.00949 µM
[28] = second compound 1 µM, first compound 0.03 µM
[29] = second compound 1 µM, first compound 0.0949 µM
[30] = second compound 1 µM, first compound 0.3 µM
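Note: spheroids exposed to compound for 7 days before readout.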
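Throughout, for viability, T/C: 100% = DMSO vehicle control luminescence.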

- IC50 (curve of compound): 2.97 µM [middle of 4 runs]
SMILES: CCC(CC)c1cc(NC2CCC(N)C2)n2nccc2n1 (centres undefined)
- viability, T/C (compound 0.0316 µM): 100% [middle of 4 runs]
- viability, T/C (compound 0.1 µM): 96.7% [middle of 4 runs]
- viability, T/C (compound 0.316 µM): 106% (2×) and 109% and 107%
- viability, T/C (compound 1 µM): 108% [middle of 4 runs]
- viability, T/C (compound 10 µM): 32% [middle of 4 runs]

- IC50 (compound alone, run of 09/09/2024): > 1000 nM
- IC50 (curve of compound): > 1000 nM
SMILES: C=CC(=O)N1CCN(c2nc(OCC3CCCN3C)nc3c(F)c(-c4nc(N)cc(C)c4C(F)(F)F)c(Cl)cc23)C(C)C1 (centres undefined)
- viability, T/C (compound 0.00316 µM): 100% [middle of 11 runs]
- viability, T/C (compound 0.0316 µM): 99.2% [middle of 11 runs]
- viability, T/C (compound 0.1 µM): 105% [middle of 11 runs]
- viability, T/C (compound 0.316 µM): 102% [middle of 11 runs]
- viability, T/C (compound 1 µM): 98% [middle of 11 runs]

- IC50 [1]: > 300 nM
- IC50 [2]: > 300 nM
- IC50 [3]: > 300 nM
- IC50 [4]: > 300 nM
- IC50 [5]: > 300 nM
- IC50 [6]: > 300 nM
SMILES: CC1(C)CCC(Nc2ncc(C(F)(F)F)c(-c3c[nH]c4c(P(C)(C)=O)c(C#N)ccc34)n2)CN1 (centres undefined) + C=CC(=O)N1CCN(c2nc(OCC3CCCN3C)nc3c(F)c(-c4nc(N)cc(C)c4C(F)(F)F)c(Cl)cc23)C(C)C1
- viability, T/C (second compound 0.00316 µM, first compound 0.000949 µM): 102%
- viability, T/C (second compound 0.00316 µM, first compound 0.003 µM): 101%
- viability, T/C (second compound 0.00316 µM, first compound 0.00949 µM): 97%
- viability, T/C (second compound 0.00316 µM, first compound 0.03 µM): 85%
- viability, T/C (second compound 0.00316 µM, first compound 0.0949 µM): 95.5%
- viability, T/C (second compound 0.00316 µM, first compound 0.3 µM): 88.1%
- viability, T/C (second compound 0.01 µM, first compound 0.000949 µM): 101%
- viability, T/C (second compound 0.01 µM, first compound 0.003 µM): 95.7%
- viability, T/C (second compound 0.01 µM, first compound 0.00949 µM): 93.7%
- viability, T/C (second compound 0.01 µM, first compound 0.03 µM): 99.7%
- viability, T/C (second compound 0.01 µM, first compound 0.0949 µM): 89.2%
- viability, T/C (second compound 0.01 µM, first compound 0.3 µM): 87.5%
- viability, T/C [7]: 102%
- viability, T/C [8]: 100%
- viability, T/C [9]: 89.8%
- viability, T/C [10]: 103%
- viability, T/C [11]: 97.8%
- viability, T/C [12]: 96.2%
- viability, T/C [13]: 98.4%
- viability, T/C [14]: 99.8%
- viability, T/C [15]: 96.8%
- viability, T/C [16]: 84.7%
- viability, T/C [17]: 99.6%
- viability, T/C [18]: 87.8%
- viability, T/C [19]: 110%
- viability, T/C [20]: 97.6%
- viability, T/C [21]: 102%
- viability, T/C [22]: 95.7%
- viability, T/C [23]: 94.1%
- viability, T/C [24]: 92.4%
- viability, T/C [25]: 91.1%
- viability, T/C [26]: 105%
- viability, T/C [27]: 105%
- viability, T/C [28]: 104%
- viability, T/C [29]: 94.9%
- viability, T/C [30]: 85%

- IC50 [3]: 94.1 nM
- IC50 [4]: 104 nM
- IC50 [5]: 97.8 nM
- IC50 [6]: 78.1 nM
- IC50 (curve of first compound, second compound 3.16 µM): 85.6 nM
- IC50 (curve of first compound, second compound 10 µM): 42.8 nM
SMILES: CCc1c2c(nc3ccc(O)cc13)-c1cc3c(c(=O)n1C2)COC(=O)[C@]3(O)CC + C#Cc1c(F)ccc2cc(O)cc(-c3ncc4c(N5CC6CCC(C5)N6)nc(OCC56CCCN5CC(F)C6)nc4c3F)c12
- viability, T/C [7]: 94.4%
- viability, T/C [8]: 96.1%
- viability, T/C [9]: 83.6%
- viability, T/C [10]: 69%
- viability, T/C [11]: 50.4%
- viability, T/C [12]: 36.2%
- viability, T/C [13]: 108%
- viability, T/C [14]: 82.4%
- viability, T/C [15]: 84.4%
- viability, T/C [16]: 70.3%
- viability, T/C [17]: 52.6%
- viability, T/C [18]: 31.6%
- viability, T/C [19]: 93.6%
- viability, T/C [20]: 94.8%
- viability, T/C [21]: 71.4%
- viability, T/C [22]: 67.2%
- viability, T/C [23]: 55.8%
- viability, T/C [24]: 25.5%
- viability, T/C [25]: 92.1%
- viability, T/C [26]: 89%
- viability, T/C [27]: 60.5%
- viability, T/C [28]: 71.4%
- viability, T/C [29]: 50.5%
- viability, T/C [30]: 23.3%
- viability, T/C (second compound 3.16 µM, first compound 0.000949 µM): 80.2%
- viability, T/C (second compound 3.16 µM, first compound 0.003 µM): 72.8%
- viability, T/C (second compound 3.16 µM, first compound 0.00949 µM): 66.2%
- viability, T/C (second compound 3.16 µM, first compound 0.03 µM): 60.1%
- viability, T/C (second compound 3.16 µM, first compound 0.0949 µM): 53.8%
- viability, T/C (second compound 3.16 µM, first compound 0.3 µM): 20.8%
- viability, T/C (second compound 10 µM, first compound 0.000949 µM): 72.4%
- viability, T/C (second compound 10 µM, first compound 0.003 µM): 61.4%
- viability, T/C (second compound 10 µM, first compound 0.00949 µM): 63%
- viability, T/C (second compound 10 µM, first compound 0.03 µM): 55.1%
- viability, T/C (second compound 10 µM, first compound 0.0949 µM): 41.1%
- viability, T/C (second compound 10 µM, first compound 0.3 µM): 20.6%

- IC50 [1]: 69 nM
- IC50 [2]: 74.3 nM
- IC50 [3]: 64.6 nM
- IC50 [4]: 77.2 nM
- IC50 [5]: 75 nM
- IC50 [6]: 51.4 nM
SMILES: CC(C)n1nc(-c2ccc3oc(N)nc3c2)c2c(N)ncnc21 + C=CC(=O)N1CCN(c2nc(OCC3CCCN3C)nc3c(F)c(-c4nc(N)cc(C)c4C(F)(F)F)c(Cl)cc23)C(C)C1
- viability, T/C (second compound 0.00316 µM, first compound 0.000316 µM): 102%
- viability, T/C (second compound 0.00316 µM, first compound 0.001 µM): 98.2%
- viability, T/C (second compound 0.00316 µM, first compound 0.00316 µM): 91.9%
- viability, T/C (second compound 0.00316 µM, first compound 0.01 µM): 74.8%
- viability, T/C (second compound 0.00316 µM, first compound 0.0316 µM): 66.5%
- viability, T/C (second compound 0.00316 µM, first compound 0.1 µM): 42.7%
- viability, T/C (second compound 0.01 µM, first compound 0.000316 µM): 100%
- viability, T/C (second compound 0.01 µM, first compound 0.001 µM): 95.3%
- viability, T/C (second compound 0.01 µM, first compound 0.00316 µM): 95.3%
- viability, T/C (second compound 0.01 µM, first compound 0.01 µM): 76.7%
- viability, T/C (second compound 0.01 µM, first compound 0.0316 µM): 56%
- viability, T/C (second compound 0.01 µM, first compound 0.1 µM): 47.8%
- viability, T/C (second compound 0.0316 µM, first compound 0.000316 µM): 104%
- viability, T/C (second compound 0.0316 µM, first compound 0.001 µM): 95.6%
- viability, T/C (second compound 0.0316 µM, first compound 0.00316 µM): 80.1%
- viability, T/C (second compound 0.0316 µM, first compound 0.01 µM): 76%
- viability, T/C (second compound 0.0316 µM, first compound 0.0316 µM): 59.6%
- viability, T/C (second compound 0.0316 µM, first compound 0.1 µM): 43.5%
- viability, T/C (second compound 0.1 µM, first compound 0.000316 µM): 96.2%
- viability, T/C (second compound 0.1 µM, first compound 0.001 µM): 108%
- viability, T/C (second compound 0.1 µM, first compound 0.00316 µM): 83.2%
- viability, T/C (second compound 0.1 µM, first compound 0.01 µM): 84.5%
- viability, T/C (second compound 0.1 µM, first compound 0.0316 µM): 63%
- viability, T/C (second compound 0.1 µM, first compound 0.1 µM): 46.1%
- viability, T/C (second compound 0.316 µM, first compound 0.000316 µM): 99.7%
- viability, T/C (second compound 0.316 µM, first compound 0.001 µM): 98%
- viability, T/C (second compound 0.316 µM, first compound 0.00316 µM): 92.2%
- viability, T/C (second compound 0.316 µM, first compound 0.01 µM): 79.6%
- viability, T/C (second compound 0.316 µM, first compound 0.0316 µM): 59.4%
- viability, T/C (second compound 0.316 µM, first compound 0.1 µM): 46.9%
- viability, T/C (second compound 1 µM, first compound 0.000316 µM): 90.6%
- viability, T/C (second compound 1 µM, first compound 0.001 µM): 99.9%
- viability, T/C (second compound 1 µM, first compound 0.00316 µM): 95.2%
- viability, T/C (second compound 1 µM, first compound 0.01 µM): 81.1%
- viability, T/C (second compound 1 µM, first compound 0.0316 µM): 55.4%
- viability, T/C (second compound 1 µM, first compound 0.1 µM): 43.1%
